Laboratory results from US20100227935A1, “CLASS OF TERPENE-DERIVED COMPOUNDS HAVING AN ANTIBIOTIC ACTIVITY, COMPOSITIONS CONTAINING THE SAME AND USES THEREOF” (Centre National De La Recherche Scientifique, priority 2006, published 2010).
Values after ≈ are worked out from the molar mass of the structure shown.

What was measured:
Staphylococcus aureus H4 = assay: MIC / antibiotic susceptibility; type: cell-based; also: key: R: strain resistant to antibiotic concerned; S: strain sensitive to antibiotic concerned; L strain with intermediate resistance to antibiotic concerned
Staphylococcus aureus H9 = assay: MIC / antibiotic susceptibility; type: cell-based; also: key: R: strain resistant to antibiotic concerned; S: strain sensitive to antibiotic concerned; L strain with intermediate resistance to antibiotic concerned
[1] = system: Staphylococcus aureus H16; type: cell-based; also: key: R: strain resistant to antibiotic concerned; S: strain sensitive to antibiotic concerned; L strain with intermediate resistance to antibiotic concerned
[2] = system: Staphylococcus aureus H18; assay: MIC / antibiotic susceptibility; type: cell-based; also: key: R: strain resistant to antibiotic concerned; S: strain sensitive to antibiotic concerned; L strain with intermediate resistance to antibiotic concerned
Staphylococcus aureus H1 = assay: MIC / antibiotic susceptibility; type: cell-based
Staphylococcus aureus H3 = assay: MIC / antibiotic susceptibility; type: cell-based
Staphylococcus aureus H7 = assay: MIC / antibiotic susceptibility; type: cell-based
C. difficile [3] = conditions: molecules in current use or in clinical trials (phase III); cited from earlier work
C. difficile [4] = conditions: cited from earlier work

Compound	Susceptibility of strain to antibiotic (Staphylococcus aureus H4)	Susceptibility of strain to antibiotic (Staphylococcus aureus H9)	Susceptibility of strain to antibiotic [1]	Susceptibility of strain to antibiotic [2]	Susceptibility of strain to antibiotic (Staphylococcus aureus H1)	Susceptibility of strain to antibiotic (Staphylococcus aureus H3)	Susceptibility of strain to antibiotic (Staphylococcus aureus H7)	MIC on C. difficile (C. difficile [3]) [µg/mL]	Patients for whom the drug is inactive (C. difficile [4]; first intention treatment of C. difficile infection) [%]	Relapses (C. difficile [4]; treatment of C. difficile infection)
Cc1nnc(SCC2=C(C(=O)O)N3C(=O)[C@@H](NC(=O)Cn4cnnn4)[C@H]3SC2)s1 [Cefazoline]	R	S	R	R	S	S	S			
CC(=O)Oc1ccccc1C(=O)Nc1ncc([N+](=O)[O-])s1 [Nitazoxanide]								0.1 (≈ 0.325 µM)		
NCC[C@H](O)C(=O)N[C@@H]1C[C@H](N)[C@@H](O[C@H]2O[C@H](CN)[C@@H](O)[C@H](O)[C@H]2O)[C@H](O)[C@H]1O[C@H]1O[C@H](CO)[C@@H](O)[C@H](N)[C@H]1O [Amikacin]	R	S	R	R	S	S	S			
NC[C@H]1O[C@H](O[C@H]2[C@H](O)[C@@H](O[C@H]3O[C@H](CO)[C@@H](O)[C@H](N)[C@H]3O)[C@H](N)C[C@@H]2N)[C@H](N)C[C@@H]1O [Tobramycin]	R	S	R	R	S	S	S			
CN[C@H](CC(C)C)C(=O)N[C@H]1C(=O)N[C@@H](CC(N)=O)C(=O)N[C@H]2C(=O)N[C@H]3C(=O)N[C@H](C(=O)N[C@H](C(=O)O)c4cc(O)cc(O)c4-c4cc3ccc4O)[C@H](O)c3ccc(c(Cl)c3)Oc3cc2cc(c3O[C@@H]2O[C@H](CO)[C@@H](O)[C@H](O)[C@H]2O[C@H]2C[C@](C)(N)[C@H](O)[C@H](C)O2)Oc2ccc(cc2Cl)[C@H]1O [Vancomycin]	S	S	S	R	S	S	S	~1 (≈ 0.69 µM)		
Co-trimoxazole	S	S	S	S	S	S	S			
CC1(C)S[C@@H]2[C@H](NC(=O)Cc3ccccc3)C(=O)N2[C@H]1C(=O)O [Penicillin G]	R	R	R	R	R	R	R			
Teicoplanin	S	S		R	S	S	S			
CC1(C)S[C@@H]2[C@H](NC(=O)[C@H](N)c3ccc(O)cc3)C(=O)N2[C@H]1C(=O)O [Amoxicillin]	R	R	R	R	R	R	R			
C[C@H]1c2cccc(O)c2C(O)=C2C(=O)[C@]3(O)C(O)=C(C(N)=O)C(=O)[C@@H](N(C)C)[C@@H]3[C@@H](O)[C@@H]21 [Doxycyclin]	S	S		S	S	S	S			
CCn1cc(C(=O)O)c(=O)c2cc(F)c(N3CCNCC3)cc21 [Norfloxacin]	R	S	R	R	S	R	R			
C[C@@H]1O[C@@H]1P(=O)(O)O [Fosfomycin]	S	S	R	R	S	S	S			
CO[C@H]1/C=C/O[C@@]2(C)Oc3c(C)c(O)c4c(O)c(c5c(nc6cc(C)ccn65)c4c3C2=O)NC(=O)/C(C)=C\C=C\[C@H](C)[C@H](O)[C@@H](C)[C@@H](O)[C@@H](C)[C@H](OC(C)=O)[C@@H]1C [Rifaximin]								0.08 to 0.2		
CC[C@H]1OC(=O)[C@H](C)[C@@H](O[C@H]2C[C@@](C)(OC)[C@@H](O)[C@H](C)O2)[C@H](C)[C@@H](O[C@@H]2O[C@H](C)C[C@H](N(C)C)[C@H]2O)[C@](C)(O)C[C@@H](C)C(=O)[C@H](C)[C@@H](O)[C@]1(C)O [Erythromycin]	S	R	R	R	S	R	R			
Cc1onc(-c2ccccc2)c1C(=O)N[C@@H]1C(=O)N2[C@@H]1SC(C)(C)[C@@H]2C(=O)O [Oxacillin]	R	S	R	R	S	S	S			
Gentamicin	S	S	R	S	S	S	S			
CCc1c(Cl)c(O)c(Cl)c(O)c1C(=O)O[C@H]1[C@H](O)[C@H](OC)[C@H](OC/C2=C\C=C\C[C@H](O)/C(C)=C/[C@H](CC)[C@@H](O[C@@H]3OC(C)(C)[C@@H](OC(=O)C(C)C)[C@H](O)[C@@H]3O)/C(C)=C/C(C)=C/C[C@@H]([C@@H](C)O)OC2=O)O[C@@H]1C [Lipiarmycin]								0.06 to 2		
Pristinamycin	S	S		S	S	S	S			
Cc1ncc([N+](=O)[O-])n1CCO [Metronidazole]								1 (≈ 5.84 µM)	25	25 % of cases
CO[C@H]1/C=C/O[C@@]2(C)Oc3c(C)c(O)c4c(O)c(c(/C=N/N5CCN(C)CC5)c(O)c4c3C2=O)NC(=O)/C(C)=C\C=C\[C@H](C)[C@H](O)[C@@H](C)[C@@H](O)[C@@H](C)[C@H](OC(C)=O)[C@@H]1C [Rifampicin]	S	S	R	S	S	S	S			
CC1COc2c(N3CCN(C)CC3)c(F)cc3c(=O)c(C(=O)O)cn1c23 (stereo not drawn) [Ofloxacin]	R	S	R	R	S	R	R			
CCN1CCN(C(=O)N[C@@H](C(=O)N[C@@H]2C(=O)N3[C@@H]2SC(C)(C)[C@@H]3C(=O)O)c2ccccc2)C(=O)C1=O [Piperacillin]	R	R	R	R	R	R	R			
CC(=O)O[C@H]1C[C@@]2(C)[C@@H](C[C@@H](O)[C@H]3[C@@]4(C)CC[C@@H](O)[C@@H](C)[C@@H]4CC[C@@]32C)/C1=C(\CCC=C(C)C)C(=O)O [Fusidic acid]	S	R	S	S	S	S	S			
CN(C)[C@@H]1C(O)=C(C(N)=O)C(=O)[C@@]2(O)C(O)=C3C(=O)c4c(O)cccc4[C@@](C)(O)[C@H]3C[C@@H]12 [Tetracycline]	S		R		S	S				
